Test results published in ChEMBL document CHEMBL4011606, “Synthesis and antiplasmodial activity of novel indoleamide derivatives bearing sulfonamide and triazole pharmacophores” (Eur J Med Chem, 2017).

Assays:
[1] = Resistance index, ratio of IC50 for chloroquine-resistant Plasmodium falciparum K1 to IC50 for chloroquine-sensitive Plasmodium falciparum 3D7; type: functional
Plasmodium falciparum [2] = test: Antiplasmodial activity against chloroquine-sensitive Plasmodium falciparum 3D7 infected in human erythrocytes measured after 72 hrs by SYBR green 1 dye based fluorescence assay; type: functional, cell-based; settings: 3D7, 72 h
Plasmodium falciparum [3] = test: Antiplasmodial activity against chloroquine-resistant Plasmodium falciparum K1 infected in human erythrocytes measured after 72 hrs by SYBR green 1 dye based fluorescence assay; type: functional, cell-based; settings: K1, 72 h
[4] = Selectivity index, ratio of CC50 for African green monkey Vero cells to IC50 for chloroquine-sensitive Plasmodium falciparum 3D7; type: toxicity; settings: read-out: Ratio CC50/IC50
[5] = Cytotoxicity against African green monkey Vero cells measured after 3 days by resazurin dye based fluorescence assay; type: cell-based; settings: chlorocebus sabaeus
[6] = Selectivity index, ratio of CC50 for African green monkey Vero cells to IC50 for chloroquine-resistant Plasmodium falciparum K1; type: toxicity; settings: read-out: Ratio CC50/IC50

| Compound | Ratio IC50 [1] | IC50 (Plasmodium falciparum [2]) [µM] | IC50 (Plasmodium falciparum [3]) [µM] | selectivity ratio [4] | CC50 at 72 h [5] [µM] | selectivity ratio [6] |
| --- | --- | --- | --- | --- | --- | --- |
| O=C(CCCc1cn(S(=O)(=O)c2ccccc2)c2ccccc12)NC1CCCCCC1 | 0.82 | 7.37 | 6.06 | – | – | – |
| O=C(CCCc1cn(Cc2ccc(F)cc2)c2ccccc12)NC12CC3CC(CC(C3)C1)C2 | 1.59 | 2.2 | 3.5 | > 113 | > 250 | > 71 |
| O=C(Cc1c[nH]c2ccccc12)NCc1cn(CC(=O)Nc2ccc(Cl)cc2)nn1 | > 1 | > 10 | > 10 | – | – | – |
| Cc1cc(S(=O)(=O)n2cc(CCCC(=O)NC34CC5CC(CC(C5)C3)C4)c3ccccc32)c(C)cc1Cl | 1.15 | 1.93 | 2.12 | > 129 | > 250 | > 112 |
| O=C(Cc1c[nH]c2ccccc12)NCc1cn(CC(=O)Nc2ccc(F)c(Cl)c2)nn1 | > 1 | > 10 | > 10 | – | – | – |
| Cn1cc(CCCC(=O)NC2CCCCCC2)c2ccccc21 | > 1 | > 10 | > 10 | – | – | – |
| O=C(Cc1c[nH]c2ccccc12)NCc1cn(CC(=O)Nc2ccccc2Cl)nn1 | > 1 | > 10 | > 10 | – | – | – |
| O=C(Cn1cc(Cn2cc(CCCC(=O)NC34CC5CC(CC(C5)C3)C4)c3ccccc32)nn1)Nc1ccc(F)cc1 | < 0.86 | > 10 | 8.68 | – | – | – |
| O=C(Cn1cc(Cn2cc(CCCC(=O)NC3CCCCCC3)c3ccccc32)nn1)Nc1ccc(Br)cc1 | < 0.87 | > 10 | 8.7 | – | – | – |
| O=C(Cc1c[nH]c2ccccc12)NCc1cn(CC(=O)Nc2ccc(F)cc2)nn1 | 1.43 | 5.16 | 7.38 | – | – | – |
| Cn1cc(CCCC(=O)NC23CC4CC(CC(C4)C2)C3)c2ccccc21 | > 1.02 | 9.73 | > 10 | – | – | – |
| C=CCn1cc(CCCC(=O)NC23CC4CC(CC(C4)C2)C3)c2ccccc21 | 1.5 | 5.04 | 7.56 | – | – | – |
| O=C(CCCc1cn(Cc2cn(Cc3ccccc3)nn2)c2ccccc12)NC12CC3CC(CC(C3)C1)C2 | > 4.62 | 2.16 | > 10 | > 115 | > 250 | > 25 |
| O=C(Cn1cc(Cn2cc(CCCC(=O)NC3CCCCCC3)c3ccccc32)nn1)Nc1ccc(F)cc1 | 0.96 | 8.12 | 7.82 | – | – | – |
| O=C(CCCc1cn(Cc2ccccc2)c2ccccc12)NC1CCCCCC1 | > 1.04 | 9.56 | > 10 | – | – | – |
| O=C(CCCc1cn(Cc2ccc(Cl)cc2)c2ccccc12)NC1CCCCCC1 | > 1 | > 10 | > 10 | – | – | – |
| Cc1cc(S(=O)(=O)n2cc(CCCC(=O)NC3CCCCCC3)c3ccccc32)c(C)cc1Cl | 1 | 2.17 | 2.19 | > 115 | > 250 | > 114 |
| C=CCn1cc(CCCC(=O)NC2CCCCCC2)c2ccccc21 | > 1 | > 10 | > 10 | – | – | – |
| O=C(Cn1cc(Cn2cc(CCCC(=O)NC3CCCCCC3)c3ccccc32)nn1)Nc1ccc(I)cc1 | > 1 | > 10 | > 10 | – | – | – |
| O=C(CCCc1cn(Cc2cn(Cc3ccccc3)nn2)c2ccccc12)NC1CCCCCC1 | > 1 | > 10 | > 10 | – | – | – |
| O=C(CCCc1cn(Cc2ccc(Cl)cc2)c2ccccc12)NC12CC3CC(CC(C3)C1)C2 | 1.55 | 3.4 | 5.3 | > 73 | > 250 | > 47 |
| CC(C)(C)c1ccc(S(=O)(=O)n2cc(CCC(=O)NC3CCCCCC3)c3ccccc32)cc1 | 0.92 | 6.24 | 5.76 | – | – | – |

| Compound | Ratio IC50 [1] | IC50 (Plasmodium falciparum [2]) [µM] | IC50 (Plasmodium falciparum [3]) [µM] | selectivity ratio [4] | CC50 at 72 h [5] [µM] | selectivity ratio [6] |
| --- | --- | --- | --- | --- | --- | --- |
| O=C(Cn1cc(Cn2cc(CCCC(=O)NC34CC5CC(CC(C5)C3)C4)c3ccccc32)nn1)Nc1ccc(Cl)cc1 | > 1 | > 10 | > 10 | – | – | – |
| O=C(Cn1cc(Cn2cc(CCCC(=O)NC34CC5CC(CC(C5)C3)C4)c3ccccc32)nn1)Nc1ccc(I)cc1 | > 1 | > 10 | > 10 | – | – | – |
| O=C(CCCc1c[nH]c2ccccc12)NC1CCCCCC1 | > 1 | > 10 | > 10 | – | – | – |
| Cc1ccc(S(=O)(=O)n2cc(CCCC(=O)NC3CCCCCC3)c3ccccc32)cc1 | 0.96 | 3.38 | 3.27 | > 73 | > 250 | > 76 |
| CCN(CC)CCCC(C)Nc1ccnc2cc(Cl)ccc12 (configuration not stated) [CHLOROQUINE] | – | – | – | – | 226 | – |
| O=C(Cn1cc(Cn2cc(CCCC(=O)NC3CCCCCC3)c3ccccc32)nn1)Nc1ccc(Cl)cc1 | > 1 | > 10 | > 10 | – | – | – |
| O=C(CCCc1cn(S(=O)(=O)c2ccccc2)c2ccccc12)NC12CC3CC(CC(C3)C1)C2 | 0.48 | 5.04 | 2.46 | > 49 | > 250 | > 101 |
| CCCCCCCn1cc(CCCC(=O)NC23CC4CC(CC(C4)C2)C3)c2ccccc21 | 1.84 | 1.91 | 3.53 | > 130 | > 250 | > 70 |
| O=C(CCCc1cn(Cc2ccccc2)c2ccccc12)NC12CC3CC(CC(C3)C1)C2 | 1.16 | 3.6 | 4.2 | > 69 | > 250 | > 59 |
| O=C(CCCc1cn(CCN2CCCCC2)c2ccccc12)NC12CC3CC(CC(C3)C1)C2 | > 1.37 | 5.63 | > 10 | – | – | – |
| O=C(Cn1cc(Cn2cc(CCCC(=O)NC34CC5CC(CC(C5)C3)C4)c3ccccc32)nn1)Nc1ccc(Br)cc1 | < 0.87 | > 10 | 8.78 | – | – | – |
| O=C(CCCc1cn(S(=O)(=O)c2cccs2)c2ccccc12)NC1CCCCCC1 | < 0.55 | > 10 | 5.55 | – | – | – |
| CC(C)(C)c1ccc(S(=O)(=O)n2cc(CCC(=O)NC34CC5CC(CC(C5)C3)C4)c3ccccc32)cc1 | 1.06 | 5.8 | 6.19 | – | – | – |
| O=C(CCCc1cn(Cc2ccc(Br)cc2)c2ccccc12)NC1CCCCCC1 | > 1 | > 10 | > 10 | – | – | – |
| O=C(Cn1cc(Cn2cc(CCCC(=O)NC3CCCCCC3)c3ccccc32)nn1)Nc1ccccc1Cl | > 1 | > 10 | > 10 | – | – | – |
| O=C(Cn1cc(Cn2cc(CCCC(=O)NC3CCCCCC3)c3ccccc32)nn1)Nc1ccc(F)c(Cl)c1 | 0.87 | 9.9 | 8.64 | – | – | – |
| CCCn1cc(CCCC(=O)NC23CC4CC(CC(C4)C2)C3)c2ccccc21 | 1.53 | 4.79 | 7.37 | – | – | – |
| O=C(Cc1c[nH]c2ccccc12)NCc1cn(CC(=O)Nc2ccc(Br)cc2)nn1 | > 1.14 | 8.77 | > 10 | – | – | – |
| O=C(CCCc1c[nH]c2ccccc12)NC12CC3CC(CC(C3)C1)C2 | > 1 | > 10 | > 10 | – | – | – |
| O=C(CCCc1cn(CCN2CCCC2)c2ccccc12)NC12CC3CC(CC(C3)C1)C2 | 1.37 | 7.03 | 9.67 | – | – | – |
| Cc1ccc(NC(=O)Cn2cc(Cn3cc(CCCC(=O)NC4CCCCCC4)c4ccccc43)nn2)cc1C | > 1 | > 10 | > 10 | – | – | – |
| Cc1ccc(NC(=O)Cn2cc(CNC(=O)Cc3c[nH]c4ccccc34)nn2)cc1C | 0.87 | 7.02 | 6.46 | – | – | – |
